The species named for experiment [1] is Homo sapiens. In words: Selectivity ratio of Ki for human recombinant ABL T315I mutant to Ki for human recombinant ABL using ATP as substrate.
The species named for experiment [2] is Homo sapiens. In words: Selectivity ratio of Ki for human recombinant ABL T315I mutant to Ki for human recombinant ABL using abtide peptide as substrate.

For `Cc1ccc(NC(=O)c2ccc(CN3CCN(C)CC3)cc2)cc1Nc1nccc(-c2cccnc2)n1`, the Ratio Ki in the experiment filed under Homo sapiens [1] and in the experiment listed under Homo sapiens [2] was 20 each time.
For the molecule `NC(=O)c1cccc(-c2cc(Nc3ccc(OC(F)(F)F)cc3)ncn2)c1`, the Ratio Ki in the experiment filed under Homo sapiens [1] and in the experiment listed under Homo sapiens [2] was 40 each time.

Values taken from ChEMBL document CHEMBL1165915, “Dual Src and Abl inhibitors target wild type Abl and the AblT315I Imatinib-resistant mutant with different mechanisms” (Bioorg Med Chem, 2010).
